Data: US8937194B2, “Topical compositions containing nitro fatty acids” (Nitromega Corp., priority 2008, dated 2015)

Test: Stability of 10-nitro oleic acid (OA-NO2) in olive oil, quantified by LC-MS/MS
Format: physicochemical
Description: Stability experiments were conducted using Bertolli extra light olive oil. Methanol soluble impurities were extracted twice. […] Olive oil is highly hydrophobic and liposomes have been previously shown to stabilize nitrated linoleic acid. The composition of Olive oil used was as follows: total fat: 14 g, saturated fat: 9%, polyunsaturated fat: 9%, Monounsaturated Fat: 45%
First, methanol-soluble substances were extracted from olive oil by applying 6 volumes of methanol per volume of oil and vortexing for a minute. The triglyceride containing fraction was obtained and the extraction was repeated. The remaining triglycerides were dried under vacuum to eliminate remaining organic solvents. […]
At the different time points, aliquot by triplicate were obtained, fatty acids were extracted from the triglyceride matrix using a 4:1 ratio of methanol:triglyceride, diluted to a final concentration of 100 nM and quantified using liquid chromatography coupled to mass spectrometry. […] The nitrated oleic acid was detected using the multiple reaction monitoring (MRM) process in the negative ion mode performed on a 4000 QTRAP triple quadrupole (Applied Biosystems). […] The peak areas were integrated using Analyst 1.5.1 software (Applied Biosystems) and external standard curves were performed for quantification purposes.

stability in olive oil (percentage of the starting concentration) (750 μM in extracted Bertolli extra light olive oil, stored in the dark at 22° C., 37° C. and 50° C., periods of up to 20 days (FIG. 1: 19 days)): stable | decrease in stability after 135 days (750 μM in olive oil, samples incubated at 22° C., 37° C., after 135 days): about 15%
Compound: CCCCCCCC/C(=C\CCCCCCCC(=O)O)[N+](=O)[O-] [10-nitro oleic acid]
